The values that follow come from patent publication US20260139007A1, “EPHA4 ANTAGONISTS AND USES THEREOF” (SANFORD BURNHAM PREBYS MEDICAL DISCOVERY INSTITUTE, priority 2023, published 2026).

Where “and” joins values, the source holds several entries; their conditions need not be identical. Equal values may be shown once. Read-outs that look alike come from different tables or passages of the source. Marks after values point to notes of the source that are not given here. Numbered stars: 1 amine (or outer) side, 2 acyl side, 3 side chain; on linkers, the order of the positions; unused ones are H or OH. Bridge positions count the residues as written; N and C are the ends. Square brackets hold non-standard residues; d marks the D form. Side chains are listed from the residue outwards. Peptide text beside a SMILES is read from it. * marks the point of attachment. γGlu = O=C(O)[C@H](CCC(=O)[*:2])N[*:1]; βAsp = O=C(O)[C@H](CC(=O)[*:2])N[*:1]; Palmitoyl = CCCCCCCCCCCCCCCC(=O)*; Lauroyl = CCCCCCCCCCCC(=O)*; Octanoyl = CCCCCCCC(=O)*; βAla = NCCC(=O)O

The target of data set [1] is EphA4 Fc. The data set is described as follows: ELISA measuring inhibition of ephrin-A5 AP binding to immobilized EphA4 Fc. Also on record: species or system human or mouse. A general note: In an ELISA, binding on a coated surface is turned into a signal by an enzyme label.
A short description of data set [2]: In vivo half-life: active compound remaining in mouse blood, deduced from apparent IC50 of plasma in the EphA4-ephrinA5 ELISA. The conditions noted are these: for half-life: in vivo, read-out: In vivo half-life (converted). How it is done: To examine the persistence of compounds in the blood circulation, an approach was devised to determine the concentration of compound in mouse blood by taking advantage of the ELISA measuring inhibition of EphA4-ephrinA5 interaction.
Lipidated compounds dissolved in DMSO were diluted in […] PBS (to a 5% final DMSO concentration) or in […] PBS supplemented with 20 or 40 mg/mL BSA or 6.5 mM methyl-β-cyclodextrin for intravenous or intraperitoneal injection. Neutral pH of the compound solution was verified before injection. PEGylated compounds were dissolved in […] PBS before intraperitoneal injection. Peptides were sterile filtered before administration. Blood from each mouse was collected at 3 different time points after compound injection, the first 2 times by retro-orbital bleeding and the third time by terminal cardiac bleeding under deep anesthesia. Red blood cells were removed by centrifugation from blood treated with heparin and the resulting plasma was frozen in aliquots.
For each time point, a dose-response curves by measuring inhibition of EphA4-ephrinA5 binding at different plasma dilutions was obtained.

In data set [3] the target is EphA4 Fc. The data set is described as follows: ELISA inhibition of ephrin-A5 AP binding to EphA4 Fc in the presence of HSA, BSA or methyl-β-cyclodextrin. The conditions noted are these: read-out: IC50 ± SE (n) by ELISA with HSA or BSA; 40 mg/mL delipidated HSA.
Text: To determine whether albumin binding to the lipidated compounds affects their ability to bind EphA4, the effects of delipidated human serum albumin (HSA) on the inhibitory potency of some of the compounds were examined.
Setting [4] is: inhibition of ephrin-A5 AP binding to EphA4 Fc, averages of all experiments, read-out: IC50 ± SE (n) by ELISA.
[5] abbreviates: mouse, ip, mouse, IP (intraperitoneal administration).
Where [6] appears, read: mouse, iv, mouse, IV (intravenous administration).

Broadly, the IC50 is the concentration that inhibits the measured activity by half. As for `CCCCCCCCCCCC(=O)N[C@@H](CC(=O)NCCCC[C@@H]1NC(=O)[C@H](Cc2ccc(O)cc2)NC(=O)[C@H](C(C)C)NC(=O)[C@@H](NC(=O)[C@H](Cc2ccc(O)cc2)NC(=O)[C@@H]2CCCN2C(=O)CCN)CSSC[C@@H](C(N)=O)NC(=O)[C@H](CO)NC(=O)[C@H](Cc2c[nH]c3ccccc23)NC(=O)[C@H](CO)NC(=O)CCNC1=O)C(=O)O` [Compound 10, βAPYCVYK(lauroyl-βD)βASWSC-NH2] (H-[βAla]PYCVYK([βAsp-Lauroyl])[βAla]SWSC-NH2; disulfide 4-12), the IC50 on EphA4 Fc [1] (setting [4]) was determined as 110 ± 10 nM.
Take `CCCCCCCCCCCC(=O)NCCCC[C@@H]1NC(=O)[C@H](Cc2ccc(O)cc2)NC(=O)[C@H](C(C)C)NC(=O)[C@@H](NC(=O)[C@H](Cc2ccc(O)cc2)NC(=O)[C@@H]2CCCN2C(=O)CCN)CSSC[C@@H](C(N)=O)NC(=O)[C@H](CO)NC(=O)[C@H](Cc2c[nH]c3ccccc23)NC(=O)[C@H](CO)NC(=O)CCNC1=O` [Compound 8, βAPYCVYK(lauroyl)βASWSC-NH2] (H-[βAla]PYCVYK(Lauroyl)[βAla]SWSC-NH2; disulfide 4-12): the IC50 at EphA4 Fc [1] (setting [4]) worked out at 390 ± 80 nM.
Turning to `CCCCCCCCCCCC(=O)N[C@@H](CC(=O)NCCCC[C@H](NC(=O)CNC(=O)CNC(=O)[C@@H]1CSSC[C@H](NC(=O)[C@H](Cc2ccc(O)cc2)NC(=O)[C@@H]2CCCN2C(=O)CCN)C(=O)N[C@@H](C(C)C)C(=O)N[C@@H](Cc2ccc(O)cc2)C(=O)N[C@@H](CCCNC(=N)N)C(=O)NCCC(=O)N[C@@H](CO)C(=O)N[C@@H](Cc2c[nH]c3ccccc23)C(=O)N[C@@H](CO)C(=O)N1)C(=O)NCC(N)=O)C(=O)O` [Compound 13], the IC50 on EphA4 Fc [1] (setting [4]) is 49 ± 11 nM.
As usually defined, the half-life is how long it takes for the measured level to halve. As to `CCCCCCCCCCCC(=O)N[C@@H](CCC(=O)NCCCC[C@H](NC(=O)CNC(=O)CNC(=O)[C@@H]1CSSC[C@H](NC(=O)[C@H](Cc2ccc(O)cc2)NC(=O)[C@@H]2CCCN2C(=O)CCN)C(=O)N[C@@H](C(C)C)C(=O)N[C@@H](Cc2ccc(O)cc2)C(=O)N[C@@H](CCCNC(=N)N)C(=O)NCCC(=O)N[C@@H](CO)C(=O)N[C@@H](Cc2c[nH]c3ccccc23)C(=O)N[C@@H](CO)C(=O)N1)C(=O)NCC(N)=O)C(=O)O` [Compound 14], the “FOLD INCREASE IN APPARENTIC IC COMPARED TO CONTROL” value is 1.0 fold in data set [2] (0 minutes (control)); 2.1 fold in data set [2] (60 minutes after intraperitoneal injection); 5 fold and 4.6 fold in data set [2] (120 minutes after intraperitoneal injection); 22.5 fold in data set [2] (240 minutes after intraperitoneal injection). For the same compound, the concentration for half-maximal inhibition (IC50) was determined as 81 nM in data set [2] (0 minutes: control, compound diluted in plasma in vitro); 168 nM in data set [2] (plasma 60 minutes after intraperitoneal injection, mouse); 371 nM in data set [2] (plasma 120 minutes after intraperitoneal injection, mouse); 1820 nM in data set [2] (plasma 240 minutes after intraperitoneal injection, mouse); 52 ± 10 nM on EphA4 Fc [1] (setting [4]). In addition, the “% PEPTIDE 14 REMAINING IN THE BLOOD” value in data set [2] (0 minutes, ESTIMATED (all injected compound in 2.5 mL blood)) was 100* %; in data set [2] (60 minutes after intraperitoneal injection, MEASURED), 48.2%; in data set [2] (120 minutes after intraperitoneal injection, MEASURED) it was 20% and 21.8%; in data set [2] (240 minutes after intraperitoneal injection, MEASURED), 4.5%. In addition, the half-life in data set [2] (setting [5]) was 30 to 60 min; in data set [2] (setting [6]) it was 30 to 42 min.
Consider `CCCCCCCCCCCC(=O)N[C@@H](CCC(=O)NCCCC[C@@H]1NC(=O)[C@H](Cc2ccc(O)cc2)NC(=O)[C@H](C(C)C)NC(=O)[C@@H](NC(=O)[C@H](Cc2ccc(O)cc2)NC(=O)[C@@H]2CCCN2C(=O)CCN)CSSC[C@@H](C(N)=O)NC(=O)[C@H](CO)NC(=O)[C@H](Cc2c[nH]c3ccccc23)NC(=O)[C@H](CO)NC(=O)CCNC1=O)C(=O)O` [Compound 11, βAPYCVYK(lauroyl-γE)βASWSC-NH2] (H-[βAla]PYCVYK([γGlu-Lauroyl])[βAla]SWSC-NH2; disulfide 4-12), for which the half-life in data set [2] (setting [5]) was 30 to 60 min. In addition, the IC50 on EphA4 Fc [1] (setting [4]) was 84 ± 13 nM.
For the compound “βAPYCVYRβASWSC-linker2-PEG (XPYCVYRXSWSCXXK; not fully specified; non-natural residues; cyclised or stapled) [APY-d3-PEG2]”, in the data set with EphA4 Fc [1] (ELISA inhibition of EphA4-ephrin-A5 interaction), the “potency compared with APY-d3” value is on record as “several fold less potent than non-PEGylated APY-d3”. The IC50 on EphA4 Fc [1] (ELISA inhibition of EphA4-ephrin-A5 interaction, read-out: IC50 (approximate)) is ~80 nM.
In the case of `CCCCCCCCCCCCCCCC(=O)N[C@@H](CCC(=O)N[C@@H](CCC(=O)NCCCC[C@H](NC(=O)CNC(=O)CNC(=O)[C@@H]1CSSC[C@H](NC(=O)[C@H](Cc2ccc(O)cc2)NC(=O)[C@@H]2CCCN2C(=O)CCN)C(=O)N[C@@H](C(C)C)C(=O)N[C@@H](Cc2ccc(O)cc2)C(=O)N[C@@H](CCCNC(=N)N)C(=O)NCCC(=O)N[C@@H](CO)C(=O)N[C@@H](Cc2c[nH]c3ccccc23)C(=O)N[C@@H](CO)C(=O)N1)C(=O)NCC(N)=O)C(=O)O)C(=O)O` [Compound 19], the half-life in data set [2] (setting [5]) is 60 to 90 min; in data set [2] (setting [6]), ~48 min. Moreover, in the data set on EphA4 Fc [1], the “less potent than compound 15” value is on record as 5-6 fold. Besides, the IC50 on EphA4 Fc [1] (setting [4]) is 160 ± 30 nM. The “better potency compared to compound 18 (single γGlu)” value in the data set with EphA4 Fc [1] (two γGlu residues vs single γGlu, palmitoyl) is ~3 fold.
Turning to `CCCCCCCCCCCCCCCC(=O)N[C@@H](CCC(=O)NCCCC[C@H](NC(=O)CNC(=O)CNC(=O)[C@@H]1CSSC[C@H](NC(=O)[C@H](Cc2ccc(O)cc2)NC(=O)[C@@H]2CCCN2C(=O)CCN)C(=O)N[C@@H](C(C)C)C(=O)N[C@@H](Cc2ccc(O)cc2)C(=O)N[C@@H](CCCNC(=N)N)C(=O)NCCC(=O)N[C@@H](CO)C(=O)N[C@@H](Cc2c[nH]c3ccccc23)C(=O)N[C@@H](CO)C(=O)N1)C(=O)NCC(N)=O)C(=O)O` [Compound 18], the figures for the half-life in data set [2] (setting [5]) and in data set [2] (setting [6]) were 60 to 90 min and ~48 min, respectively. The IC50 on EphA4 Fc [1] (setting [4]) stood at 520 ± 80 nM.
Turning to `CCCCCCCCCCCCCCCC(=O)N[C@@H](CCC(=O)N[C@@H](CCC(=O)NCCCC[C@H](NC(=O)[C@H](CO)NC(=O)CNC(=O)CNC(=O)CNC(=O)[C@@H]1CSSC[C@H](NC(=O)[C@H](Cc2ccc(O)cc2)NC(=O)[C@@H]2CCCN2C(=O)CCN)C(=O)N[C@@H](C(C)C)C(=O)N[C@@H](Cc2ccc(O)cc2)C(=O)N[C@@H](CCCNC(=N)N)C(=O)NCCC(=O)N[C@@H](CO)C(=O)N[C@@H](Cc2c[nH]c3ccccc23)C(=O)N[C@@H](CO)C(=O)N1)C(=O)NCC(N)=O)C(=O)O)C(=O)O` [Compound 20] (H-[βAla]PYCVYR[βAla]SWSCGGGSK([γGlu-γGlu-Palmitoyl])G-NH2; disulfide 4-12), the IC50 at EphA4 Fc [1] (setting [4]) is 190 ± 20 nM.
As for `CCCCCCCC(=O)NCCCC[C@@H]1NC(=O)[C@H](Cc2ccc(O)cc2)NC(=O)[C@H](C(C)C)NC(=O)[C@@H](NC(=O)[C@H](Cc2ccc(O)cc2)NC(=O)[C@@H]2CCCN2C(=O)CCN)CSSC[C@@H](C(N)=O)NC(=O)[C@H](CO)NC(=O)[C@H](Cc2c[nH]c3ccccc23)NC(=O)[C@H](CO)NC(=O)CCNC1=O` [Compound 4, βAPYCVYK(octanoyl)βASWSC-NH2] (H-[βAla]PYCVYK(Octanoyl)[βAla]SWSC-NH2; disulfide 4-12), the IC50 at EphA4 Fc [3] was determined as 100 ± 30 nM.
As for `CCCCCCCCCCCCCCCC(=O)N[C@@H](CCC(=O)NCCCC[C@@H]1NC(=O)[C@H](Cc2ccc(O)cc2)NC(=O)[C@H](C(C)C)NC(=O)[C@@H](NC(=O)[C@H](Cc2ccc(O)cc2)NC(=O)[C@@H]2CCCN2C(=O)CCN)CSSC[C@@H](C(N)=O)NC(=O)[C@H](CO)NC(=O)[C@H](Cc2c[nH]c3ccccc23)NC(=O)[C@H](CO)NC(=O)CCNC1=O)C(=O)O` [Compound 17, βAPYCVYK(palmitoyl-γE)BASWSC-NH2] (H-[βAla]PYCVYK([γGlu-Palmitoyl])[βAla]SWSC-NH2; disulfide 4-12), on EphA4 Fc [1] (setting [4]), the IC50 was 2300 nM.
